Literature values in PMC7584476, “Safety and efficacy of BAY1436032 in IDH1-mutant AML: phase I study results” (Leukemia, 2020).
Read-outs that look alike come from different tables or passages of the source.

Key:
primary AML samples = settings: cited from earlier work
mIDH1 AML = system: mIDH1 AML; parameters: method as in PMID 29860938; settings: cited from earlier work

SMILES | Number of colony-forming cells (primary AML samples) | Half-life (mIDH1 AML) [h] | ≥grade 3 TEAE IDH DS (mIDH1 AML) [%] | ≥grade 3 TEAE QT prolongation (mIDH1 AML) [%] | Median overall survival (mIDH1 AML; similar populations, 95% CI 6.7–10.2) [months] | Number of colony-forming cells (primary AML samples; ref MH, unpublished)
CC(C)(O)CNc1nc(Nc2ccnc(C(F)(F)F)c2)nc(-c2cccc(C(F)(F)F)n2)n1 [enasidenib] | increased | – | – | – | – | –
N#Cc1ccnc(N2C(=O)CC[C@H]2C(=O)N(c2cncc(F)c2)[C@H](C(=O)NC2CC(F)(F)C2)c2ccccc2Cl)c1 [ivosidenib] | – | 72 to 138 | 4 | 8 | 8.8 | increased
